This note sets out measurements from patent publication US8399520B2, “Selective estrogen receptor modulator” (Eisai R&D Management Co., Ltd., priority 2002, dated 2013).

Series [1] concerns the target T1, estrogen receptor derived from bovine uterus (Bos taurus, UniProt P49884).
T1 construct: estrogen receptor derived from bovine uterus was diluted with the assay buffer solution so that 10 to 20 μg total protein was present; from tissue; host or cells: bovine uterus
T1 sequence (P49884 1-596): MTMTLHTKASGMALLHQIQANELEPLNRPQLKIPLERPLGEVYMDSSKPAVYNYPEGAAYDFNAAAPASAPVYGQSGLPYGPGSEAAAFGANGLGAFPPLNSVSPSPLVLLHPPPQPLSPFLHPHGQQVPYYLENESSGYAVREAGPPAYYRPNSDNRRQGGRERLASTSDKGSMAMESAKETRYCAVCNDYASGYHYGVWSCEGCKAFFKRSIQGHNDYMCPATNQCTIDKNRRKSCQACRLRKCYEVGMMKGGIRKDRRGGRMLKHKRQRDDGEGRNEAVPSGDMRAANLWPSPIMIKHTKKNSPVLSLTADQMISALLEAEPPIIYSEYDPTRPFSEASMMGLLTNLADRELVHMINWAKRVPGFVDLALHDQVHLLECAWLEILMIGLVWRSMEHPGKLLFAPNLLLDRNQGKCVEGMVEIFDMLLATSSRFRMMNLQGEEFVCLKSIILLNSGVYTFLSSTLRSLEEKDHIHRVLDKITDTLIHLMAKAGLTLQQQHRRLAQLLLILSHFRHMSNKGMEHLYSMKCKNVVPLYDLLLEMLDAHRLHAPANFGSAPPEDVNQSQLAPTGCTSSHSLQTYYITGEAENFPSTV
Description: In vitro estrogen receptor binding assay. The following applies: read-out: Estrogen receptor binding affinity: Ki. The procedure:
The binding affinity of the compound according to the present invention to estrogen receptor was measured using an in vitro estrogen receptor binding assay. The binding affinity measures the ability of the compound according to the present invention to remove [^3H]-estradiol from estrogen receptor derived from bovine uterus. The following materials were used in this assay: (1) the assay buffer solution was 20 mM Tris/HCl (pH 7.5) containing 1 mM dithiothreitol (DTT), 1 mM EDTA and 10% glycerol; (2) radioactive ligand was [^3H]-estradiol purchased from Amersham Life Science; (3) the cold ligand was diethylstilbestrol purchased from sigma (Sigma); and (4) the estrogen receptor was derived from bovine uterus. The compound to be tested was prepared as a 10% DMSO solution. [^3H]-estradiol was dissolved in the assay buffer solution so as to obtain a final concentration of 1 nM. […] Each plate contains total binding, non-specific binding and the binding which were not inhibited by various concentrations of the compound. The plate was incubated for 1 hour at room temperature. […] These mixtures were centrifuged, and the supernatant thereof was evaluated for its radioactivity using a liquid scintillation counter. Specific binding was calculated by subtracting non-specific binding dpm (counts remaining in the supernatant obtained by centrifugal separation of a reaction mixture containing estrogen receptor derived from bovine uterus, radioactive ligand and excess cold ligand) from the total binding dpm (counts remaining in the supernatant obtained by centrifugal separation of a reaction mixture containing estrogen receptor derived from bovine uterus and radioactive ligand only). The effectiveness of the compound was evaluated by Ki. […] C is the concentration of [^3H]-estradiol in the reaction mixture, and Kd is the [^3H]-estradiol dissociation constant. The Kd was determined by Scatchard analysis. That is to say, various concentrations of [^3H]-estradiol were used to measure the concentration of specifically bound [^3H]-estradiol, which served as the horizontal axis, the value which was obtained by dividing the concentration of specifically bound [^3H]-estradiol by the concentration [^3H]-estradiol not bound to the receptor served as the vertical axis to produce a plot, and the negative value of the inverse of the slope of the resulting straight line was used as Kd.

In series [2] the test system is MCF-7 breast cancer cells. As to the kind of experiment: MCF-7 growth analysis (estrogen agonist and antagonist activity, MTT assay). Type of series: cell-based. The following applies: Homo sapiens; for activity at 0.1 µM: MCF7, MCF-7, 72 hours, growth rate of diluent control = 100, of 17β-estradiol (1 nM) = 200, read-out: Agonist activity: growth rate (100 nM test compound); for IC50: MCF7, MCF-7 growth with 17β-estradiol (10 pM) present simultaneously, 72 hours. The procedure:
Test Example 2 determines the estrogen agonist and antagonist activities of the compound according to the present invention in reproduction system cells. […] The present test was carried out according to the following procedures. MCF-7 breast cancer cells were cultured in the preservation medium until the compound evaluation. The preservation medium is the MEM (minimum essential medium, phenol red-free, Gibco, ##51200-038) supplemented with 10% (volume/volume) fetal bovine serum (FBS), 2 mM L-glutamine, 1 mM sodium pyruvate, non-essential amino acids (0.1 mM, Gibco, #15240-062), and antibiotic-antimycotic solution ( 1/50 of culture medium volume, Gibco). Five days prior to analysis, the preservation medium was exchanged with analytical medium to which 10% charcoal-stripped fetal bovine serum (charcoal-FBS) was added instead of 10% FBS, so as to deprive the MCF-7 cells of endogenous steroids. Twenty-four hours after exchange to the analytical medium, the MCF-7 cells were removed from the preservation flask using cell isolation medium (trypsin-EDTA solution, Gibco). The cells were washed with analytical medium once, and cell suspension at 50,000 cell/ml was prepared using the analytical medium. The prepared cell suspension was added to a 96 well flat-bottomed microculture at […] (5,000 cells) per well, the cells were cultured in a 5% CO2 incubator for 24 hours at 37° C., to equilibrate the cells after cell transfer. […] The cells were further cultured in the 5% CO2 incubator for 72 hours at 37° C. After culturing, the cell growth was examined by the MTT assay. MTT assay was carried out as the following protocols. MTT solution at 8 mg/ml (MTT dissolved in phosphate saline water buffer) was added to the microculture at 10 μl/well, and the cells were cultured in the 5% CO2 incubator for 30 minutes at 37° C. Thereafter, resulting from the reduction of MTT by the cells, formazan crystals were dissolved by adding a dissolution buffer (400 g/l of an aqueous solution of SDS (50%) and dimethylformamide (50%)) to the microculture at 100 μl/well, and incubated the microculture for more than 4 hours in the dark. For each well of the microculture, the optical density at 590 nm due to the dissolved formazan crystals was measured.

The test system of series [3] is ovariectomized rats. As to the kind of experiment: Bone resorption in ovariectomized rats: deoxypyridinoline in urine. Type of series: in vivo, rat. The following applies: OVX rats, 0.3 mg/kg orally once a day Monday to Friday, urine. The text has this: (§1) Ten weeks old Female Fischer rats (F344/N, Japan SLC, Shizuoka, Japan) were used. Rats were grouped to eliminate the effect of body weight between each group and housed with free access to food and water. Animals were anesthetized with Nembutal (Abbott Laboratories, Chicago, Ill.) and the ovaries were removed. In sham-operated group, ovaries were only touched with tweezers. Administration of compounds was started one day after the operation.
(§2) Estradiol (Sigma-Aldrich, St. Louis, Mo.) was dissolved in DMSO to 150 mg/mL then diluted with sesame oil to 0.15 mg/mL. The compounds in Examples 736 and 814, and Raloxifene were suspended in sesame oil to 5, 5 and 1.5 mg/mL, respectively. Samples were divided into aliquots for daily administration and preserved at −18° C. until use.
(§3) The samples were orally administered at 2 mL/kg. Administration was carried out once a day from Monday to Friday for 8 weeks.
Urine was gathered overnight (17 hours) using the metabolic cage under fasting. The amount of urinary deoxypyridinoline was measured with ELISA kit, Osteorincs-DPD (Sumitomo Seiyaku Biomedical Co., Ltd., Osaka, Japan) and evaluated as total amount produced in 17 hours or as the amount per 1 mg of creatinine.

The subject of series [4] is ovariectomized rats. Description: Ovariectomized rats: bone density of femur and fifth lumbar vertebrae. Type of series: in vivo, rat. The following applies: OVX rats, 0.3 mg/kg orally, 8 weeks.
Excerpt: as §1, §2, §3
After animals were sacrificed by decapitation, left femur and the fifth lumbar vertebrae were removed. The bone density was measured by using QDR-1000/W (Ho logic Inc., Bedford, Mass.).

In series [5] the test system is ovariectomized rats. Description: Ovariectomized rats: uterus wet weight. Type of series: in vivo, rat. The following applies: OVX rats, 0.3 mg/kg orally, 8 weeks.
Excerpt: as §1, §2, §3
After animals were sacrificed by decapitation, uterus was removed and adipose tissue and vagina was separated from uterus prior to uterus weight measurement.

For `CCN(Cc1ccc(OCCN2CCCCCC2)cc1)c1cc(O)ccc1[C@@H]1CCc2cc(O)ccc2C1` [190 (R), (R)-6-{2-{[4-(2-azepan-1-ylethoxy)benzyl]ethylamino}-4-hydroxyphenyl}-5,6,7,8-tetrahydronaphthalen-2-ol], the Ki in series [1] turned out to be 1 nM. In series [2], the activity at 0.1 µM is 124% and the IC50 came to 7.95 nM.

With `CC/C(=C(\c1ccccc1)c1ccc(OCCN(C)C)cc1)c1ccccc1` [Comparative Example, Tamoxifen, reference compound], the activity at 0.1 µM in series [2] was determined as 133%.

For `C[C@]12CC[C@@H]3c4ccc(O)cc4CC[C@H]3[C@@H]1CC[C@@H]2O` [Estradiol, reference compound], the “Deoxypyridinoline, 5 weeks” value in the series with ovariectomized rats [3] (5 weeks) is 12.06 ± 1.60 nM/mg/dl. For the same compound, the “Deoxypyridinoline, 8 weeks” value in the series with ovariectomized rats [3] (8 weeks) was 11.61 ± 2.10 nM/mg/dl. For the same compound, in the series with ovariectomized rats [4], the “Bone Mineral Density, Distal femur” value came to 0.250 ± 0.001 g/cm^2; the “Bone Mineral Density, Lumber 5” value is listed as 0.150 ± 0.005 g/cm^2; the “Bone Mineral Density, Whole femur” value stood at 0.237 ± 0.001 g/cm^2. The “Uterus (wet weight)” value in the series on ovariectomized rats [5] worked out at 0.213 ± 0.013 g.

Take `CCN(Cc1ccc(OCCN2CCCCCC2)nc1)c1cc(OC)ccc1[C@@H]1CCc2cc(O)ccc2C1` [Example 228, (R)-6-{2-{[6-(2-Azepan-1-ylethoxy)pyridin-3-ylmethyl]ethylamino}-4-methoxyphenyl}-5,6,7,8-tetrahydronaphthalen-2-ol]: in series [1], the Ki stood at 2.3 nM. For the same compound, in series [2], the activity at 0.1 µM is 101% and the IC50 came out at 2.62 nM.

For the compound `CCN(Cc1ccc(CCN2CCCCCC2)cn1)c1cc(OC)c(OC)cc1C1CCc2cc(O)ccc2C1` (stereo not drawn) [Example 255, 6-{2-{[5-(2-Azepan-1-ylethyl)pyridin-2-ylmethyl]ethylamino}-4,5-dimethoxyphenyl}-5,6,7,8-tetrahydronaphthalen-2-ol], in series [1], the Ki stood at 1.4 nM. In series [2], the activity at 0.1 µM turned out to be 106% and the IC50 worked out at 1.4 nM.

In the case of `CCN(Cc1ccc(CCN2CCCCCC2)s1)c1cc(OC)c(OC)cc1[C@@H]1CCc2cc(O)ccc2C1` [Example 259, (R)-6-{2-{[5-(2-Azepan-1-ylethyl)thiophen-2-ylmethyl]ethylamino}-4,5-dimethoxyphenyl}-5,6,7,8-tetrahydronaphthalen-2-ol], in series [1], the inhibition constant (Ki) came out at 2.8 nM. In series [2], the activity at 0.1 µM was found to be 103% and the IC50 amounted to 4.12 nM.

As for `CCN(Cc1ccc(OC2CC3CCC(C2)N3C)c(F)c1)c1cc(O)ccc1C1CCc2cc(O)ccc2C1` (stereo not drawn) [Example 367, 6-{2-{Ethyl[3-fluoro-4-(8-methyl-8-azabicyclo[3.2.1]oct-3-yloxy)benzyl]amino}-4-hydroxyphenyl}-5,6,7,8-tetrahydronaphthalen-2-ol], the Ki in series [1] is 1.8 nM.

As for `CCN1CCN(CCOc2ccc(CN(CC)c3cc(O)ccc3C3CCc4cc(O)ccc4C3)cc2)CC1` (stereo not drawn) [Example 373, 6-{2-{Ethyl{4-[2-(4-ethylpiperazin-1-yl)ethoxy]benzyl}amino}-4-hydroxyphenyl}-5,6,7,8-tetrahydronaphthalen-2-ol], the inhibitory constant (Ki) in series [1] was 5 nM.

Turning to `CCNCCOc1ccc(CN(CC)c2cc(O)ccc2C2CCc3cc(O)ccc3C2)cc1` (stereo not drawn) [Example 379, 6-{2-{Ethyl[4-(2-ethylaminoethoxy)benzyl]amino}-4-hydroxyphenyl}-5,6,7,8-tetrahydronaphthalen-2-ol], the Ki in series [1] was found to be 1.1 nM.

For `CCOCCN(C)CCOc1ccc(CN(CC)c2cc(OC)ccc2[C@@H]2CCc3cc(O)ccc3C2)cc1` [Example 618, (R)-6-{2-{{4-{2-[(2-Ethoxyethyl)methylamino]ethoxy}benzyl}ethylamino}-4-methoxyphenyl}-5,6,7,8-tetrahydronaphthalen-2-ol], in series [1], the Ki stood at 2.9 nM. Also, in series [2], the activity at 0.1 µM was 96% and the IC50 came to 2.9 nM.

In the case of `CCN(Cc1ccc(CCN(C)C)cc1)c1cc(OC)c(OC)cc1[C@@H]1CCc2cc(O)ccc2C1` [Example 741, (R)-6-{2-{[4-(2-Dimethylaminoethyl)benzyl]ethylamino}-4,5-dimethoxyphenyl}-5,6,7,8-tetrahydronaphthalen-2-ol], in series [1], the Ki was determined as 0.2 nM. Also, in series [2], the activity at 0.1 µM was 98% and the 50% inhibitory concentration (IC50) came to 2.06 nM.

As for `CC(C)(Cc1ccc(O)cc1Oc1ccc(OCCN2CCCCC2)cc1)c1ccc(O)cc1` [Example 776, 4-[2-(4-Hydroxyphenyl)-2-methylpropyl]-3-[4-(2-piperidin-1-ylethoxy)phenoxy]phenol], the inhibition constant Ki in series [1] was found to be 6.3 nM.

With `CCN(Cc1ccc(OCCN2CCCCC2)cc1)c1cc(O)ccc1CC1CCc2cc(O)ccc2C1` (stereo not drawn) [Example 791, 6-{2-{Ethyl[4-(2-piperidin-1-ylethoxy)benzyl]amino}-4-hydroxybenzyl}-5,6,7,8-tetrahydronaphthalen-2-ol], in series [1], the Ki was 9.8 nM.

A word on the Ki: it is the dissociation constant of the complex between target and ligand, obtained from inhibition or displacement. In general, IC50 refers to the concentration that inhibits the measured activity by half.
